PubChem BioAssay AID1259407 (Chemical Carcinogenesis Research Information System (CCRIS), 2018)
Calls of active or inactive are those of the source. The rule behind the calls is not given here.

Test system: CCRIS mutagenicity, Ames/micronucleus/aberration tests
Assay: CCRIS mutagenicity studies
[1] = Test System: AMES SALMONELLA TYPHIMURIUM, Strain/Indicator: TA98, Metabolic Activation: HAMSTER, LIVER, S-9, AROCLOR 1254, Method: STANDARD PLATE
[2] = Test System: AMES SALMONELLA TYPHIMURIUM, Strain/Indicator: TA98, Metabolic Activation: NONE, Method: PREINCUBATION
[3] = Test System: AMES SALMONELLA TYPHIMURIUM, Strain/Indicator: TA100, Metabolic Activation: NONE, Method: PREINCUBATION
[4] = Test System: MOUSE LYMPHOMA, Strain/Indicator: L5178Y (TK+/TK-), Metabolic Activation: RAT, LIVER, S-9, AROCLOR 1254, Method: SUSPENSION/PLATE
[5] = Test System: AMES SALMONELLA TYPHIMURIUM, Strain/Indicator: TA98, Metabolic Activation: NONE, Method: STANDARD PLATE
[6] = Test System: AMES SALMONELLA TYPHIMURIUM, Strain/Indicator: TA98, Metabolic Activation: RAT, LIVER, S-9, AROCLOR 1254, Method: STANDARD PLATE
[7] = Test System: AMES SALMONELLA TYPHIMURIUM, Strain/Indicator: TA100, Metabolic Activation: RAT, LIVER, S-9, AROCLOR 1254, Method: STANDARD PLATE
[8] = Test System: MOUSE LYMPHOMA, Strain/Indicator: L5178Y (TK+/TK-), Metabolic Activation: NONE, Method: SUSPENSION/PLATE
[9] = Test System: AMES SALMONELLA TYPHIMURIUM, Strain/Indicator: TA100, Metabolic Activation: NONE, Method: STANDARD PLATE
[10] = Test System: AMES SALMONELLA TYPHIMURIUM, Strain/Indicator: TA1535, Metabolic Activation: NONE, Method: STANDARD PLATE

## CCN(Cc1cccc(S(=O)(=O)O)c1)c1ccc(C(=C2C=CC(=[N+](CC)Cc3cccc(S(=O)(=O)O)c3)C=C2)c2ccccc2S(=O)(=O)[O-])cc1
End Point: IN VIVO MICRONUCLEUS, Test System: BONE MARROW POLYCHROMATIC ERYTHROCYTES, Species: MOUSE, Strain/Sex: DDY/MALE, Route: IP
  mutagenic call: inactive; negative
[1]
  mutagenic call: active; positive
Test System: AMES SALMONELLA TYPHIMURIUM, Strain/Indicator: TA98, Metabolic Activation: HAMSTER, LIVER, S-9, Method: PREINCUBATION (PRIVAL METHOD)
  mutagenic call: active; positive
[2]
  mutagenic call: inactive; negative
Test System: AMES SALMONELLA TYPHIMURIUM, Strain/Indicator: TA98, Metabolic Activation: S-9, Method: PREINCUBATION
  mutagenic call: inactive; negative
Test System: AMES SALMONELLA TYPHIMURIUM, Strain/Indicator: TA100, Metabolic Activation: HAMSTER, LIVER, S-9, Method: PREINCUBATION (PRIVAL METHOD)
  mutagenic call: active; positive
[3]
  mutagenic call: inactive; negative
Test System: AMES SALMONELLA TYPHIMURIUM, Strain/Indicator: TA100, Metabolic Activation: S-9, Method: PREINCUBATION
  mutagenic call: inactive; negative
Test System: AMES SALMONELLA TYPHIMURIUM, Strain/Indicator: TA1538, Metabolic Activation: RAT, LIVER, S-9, AROCLOR 1254, HAMSTER, LIVER, S-9, AROCLOR 1254, Method: STANDARD PLATE
  mutagenic call: active; positive
[4]
  mutagenic call: active; positive. reevaluation of results: positive
Test System: Mouse lymphoma, Strain/Indicator: L5178Y (tk+/tk-), Metabolic Activation: None, Method: Suspension/plate
  mutagenic call: inactive; negative

## CCCCCc1cc(O)c2c(c1)OC(C)(C)[C@@H]1CCC(C)=C[C@@H]21
Test System: AMES SALMONELLA TYPHIMURIUM, Strain/Indicator: TA97, Metabolic Activation: HAMSTER, LIVER, S-9, AROCLOR 1254 (10 OR 30%), Method: PREINCUBATION
  mutagenic call: inactive; negative
Test System: AMES SALMONELLA TYPHIMURIUM, Strain/Indicator: TA97, Metabolic Activation: NONE, Method: PREINCUBATION
  mutagenic call: inactive; negative
Test System: AMES SALMONELLA TYPHIMURIUM, Strain/Indicator: TA97, Metabolic Activation: RAT, LIVER, S-9, AROCLOR 1254 (10 OR 30%), Method: PREINCUBATION
  mutagenic call: inactive; negative
Test System: AMES SALMONELLA TYPHIMURIUM, Strain/Indicator: TA98, Metabolic Activation: HAMSTER, LIVER, S-9, AROCLOR 1254 (10 OR 30%), Method: PREINCUBATION
  mutagenic call: inactive; negative
[2]
  mutagenic call: inactive; negative
Test System: AMES SALMONELLA TYPHIMURIUM, Strain/Indicator: TA98, Metabolic Activation: RAT, LIVER, S-9, AROCLOR 1254 (10 OR 30%), Method: PREINCUBATION
  mutagenic call: inactive; negative
Test System: AMES SALMONELLA TYPHIMURIUM, Strain/Indicator: TA100, Metabolic Activation: HAMSTER, LIVER, S-9, AROCLOR 1254 (10 OR 30%), Method: PREINCUBATION
  mutagenic call: inactive; negative
[3]
  mutagenic call: inactive; negative
Test System: AMES SALMONELLA TYPHIMURIUM, Strain/Indicator: TA100, Metabolic Activation: RAT, LIVER, S-9, AROCLOR 1254 (10 OR 30%), Method: PREINCUBATION
  mutagenic call: inactive; negative
Test System: AMES SALMONELLA TYPHIMURIUM, Strain/Indicator: TA1535, Metabolic Activation: HAMSTER, LIVER, S-9, AROCLOR 1254 (10 OR 30%), Method: PREINCUBATION
  mutagenic call: inactive; negative
Test System: AMES SALMONELLA TYPHIMURIUM, Strain/Indicator: TA1535, Metabolic Activation: NONE, Method: PREINCUBATION
  mutagenic call: inactive; negative
Test System: AMES SALMONELLA TYPHIMURIUM, Strain/Indicator: TA1535, Metabolic Activation: RAT, LIVER, S-9, AROCLOR 1254 (10 OR 30%), Method: PREINCUBATION
  mutagenic call: inactive; negative

## c1ccc2c(c1)ccc1c2ccc2cccnc21
[5]
  mutagenic call: inactive; negative
[6]
  mutagenic call: active; positive
[7]
  mutagenic call: active; positive

## O=C1NC(=O)[C@H]2[C@H]3C=C[C@@H]([C@@H]12)[C@@H]1[C@H]2C(=O)NC(=O)[C@H]2[C@H]31
[8]
  mutagenic call: active; positive. reevaluation of results: inconclusive
[4]
  mutagenic call: active; positive. reevaluation of results: positive

## CCCCCC(C)=O
Test System: CHINESE HAMSTER V-79, Strain/Indicator: V-79 (HPRT)/6-THIOGUANINE, Metabolic Activation: NONE, Method: STANDARD PLATE
  mutagenic call: inactive; negative
Test System: CHINESE HAMSTER V-79, Strain/Indicator: V-79 (HPRT)/6-THIOGUANINE, Metabolic Activation: RAT LIVER S-9, Method: STANDARD PLATE
  mutagenic call: inactive; negative

## Cc1cccc2c([N+](=O)[O-])cccc12
[2]
  mutagenic call: active; positive

## CN(C)N=Nc1ccccc1
Test System: AMES SALMONELLA TYPHIMURIUM, Strain/Indicator: G46, Metabolic Activation: NONE, Method: STANDARD PLATE
  mutagenic call: active; positive
Test System: AMES SALMONELLA TYPHIMURIUM, Strain/Indicator: G46, Metabolic Activation: RAT, LIVER, S-9, PHENOBARBITAL, Method: STANDARD PLATE
  mutagenic call: active; positive

## O=C(CCl)c1ccc(Cl)cc1Cl
[1]
  mutagenic call: inactive; negative
[5]
  mutagenic call: inactive; negative
[6]
  mutagenic call: inactive; negative
Test System: AMES SALMONELLA TYPHIMURIUM, Strain/Indicator: TA100, Metabolic Activation: HAMSTER, LIVER, S-9, AROCLOR 1254, Method: STANDARD PLATE
  mutagenic call: inactive; negative
[9]
  mutagenic call: inactive; negative
[7]
  mutagenic call: inactive; negative
Test System: AMES SALMONELLA TYPHIMURIUM, Strain/Indicator: TA1535, Metabolic Activation: HAMSTER, LIVER, S-9, AROCLOR 1254, Method: STANDARD PLATE
  mutagenic call: inactive; negative
[10]
  mutagenic call: inactive; negative
Test System: AMES SALMONELLA TYPHIMURIUM, Strain/Indicator: TA1535, Metabolic Activation: RAT, LIVER, S-9, AROCLOR 1254, Method: STANDARD PLATE
  mutagenic call: inactive; negative
Test System: AMES SALMONELLA TYPHIMURIUM, Strain/Indicator: TA1537, Metabolic Activation: HAMSTER, LIVER, S-9, AROCLOR 1254, Method: STANDARD PLATE
  mutagenic call: inactive; negative
Test System: AMES SALMONELLA TYPHIMURIUM, Strain/Indicator: TA1537, Metabolic Activation: NONE, Method: STANDARD PLATE
  mutagenic call: inactive; negative
Test System: AMES SALMONELLA TYPHIMURIUM, Strain/Indicator: TA1537, Metabolic Activation: RAT, LIVER, S-9, AROCLOR 1254, Method: STANDARD PLATE
  mutagenic call: inactive; negative
[8]
  mutagenic call: inactive; negative. reevaluation of results: negative
[4]
  mutagenic call: inactive; negative. reevaluation of results: negative

## CC(O)c1cc2ccc3cccc4ccc(c1)c2c34 (stereo unspecified)
Test System: AMES SALMONELLA TYPHIMURIUM, Strain/Indicator: TA98, Metabolic Activation: HUMAN, LIVER, CYTOSOL, PAPS, Method: PREINCUBATION
  mutagenic call: active; positive

## O=S1(=O)CCCO1
Test System: AMES SALMONELLA TYPHIMURIUM, Strain/Indicator: TA100, Metabolic Activation: RAT, LIVER, S-9, KC500 OR PHENOBARBITAL, Method: LIQUID SUSPENSION
  mutagenic call: active; positive
[10]
  mutagenic call: active; positive
Test System: UDS HUMAN FIBROBLASTS, Strain/Indicator: THY INCORP (NON-S-PHASE), Metabolic Activation: NONE, Method: LIQUID SCINTILLATION COUNTING
  mutagenic call: active; positive

## CCc1ccc(/C=C/c2ccc(N)cc2)cc1
[5]
  mutagenic call: inactive; negative
Test System: AMES SALMONELLA TYPHIMURIUM, Strain/Indicator: TA98, Metabolic Activation: RAT LIVER S9, AROCLOR, Method: STANDARD PLATE
  mutagenic call: active; positive
[9]
  mutagenic call: inactive; negative
Test System: AMES SALMONELLA TYPHIMURIUM, Strain/Indicator: TA100, Metabolic Activation: RAT, LIVER, S9, AROCLOR, Method: STANDARD PLATE
  mutagenic call: active; positive

## ClNc1ccc2c(c1)Cc1ccccc1-2
[6]
  mutagenic call: active; positive
